Test results taken from US20060154990A1, “Use of MEK inhibitors in treating abnormal cell growth” (AGOURON PHARMACEUTICALS, INC., priority 2004, published 2006).
Where “and” joins values, the source holds several entries; their conditions need not be identical. Equal entries are not always repeated. Marks after values point to notes of the source that are not given here.

Key:
[1] = system: Colo-205 human colon xenograft; experiment: Antitumor activity against human colon xenograft Colo-205
Experimental: A study was also carried out to explore the potential of an intermittent dosing strategy.

[2] = Plasma pharmacokinetics after multiple oral doses in advanced cancer patients
Experimental: (§1) Pharmacokinetic data are presented for the first 38 subjects.
(§2) Blood samples were collected from patients into a purple-top potassium EDTA Vacutainer tube. Following mixing with gentle inversion (8-10 times), tubes were centrifuged within 20 minutes at 1000×g for 15 minutes, to harvest plasma. Plasma samples were stored at −20° C. until analysis.
(§3) The following results are based on preliminary pharmacokinetic parameters from the 38 subjects, estimated using nominal collection times and quality-controlled, non quality-assured bioanalytical data. Pharmacokinetic parameters were determined by the non-compartmental method using WINNONLIN Professional Edition (Version 4.1). […] The maximum observed concentration (Cmax) was obtained by inspection of the concentration data. The time to reach the Cmax was the first time at which Cmax is observed and obtained by inspection of the data. The pre-dose concentration (Ctrough) was obtained by inspection of the concentration data.

[3] = clinical; settings: human, plasma, oral
Experimental: as §1, §2, §3

[4] = Colo-205, D19, 22, 25, 28, 31, 34, 37, 40, 43, 46, 18.8 mg/kg
[5] = Colo-205, D19, 22, 25, 28, 31, 34, 37, 40, 43, 46, 37.5 mg/kg
[6] = Colo-205, D19, 22, 25, 28, 31, 34, 37, 40, 43, 46, 75 mg/kg
[7] = Colo-205, D19, 22, 25, 28, 31, 34, 37, 40, 43, 46, 150 mg/kg
[8] = Colo-205, D19, 26, 33, 40, 47, 37.5 mg/kg
[9] = Colo-205, D19, 26, 33, 40, 47, 75 mg/kg
[10] = Colo-205, D19, 26, 33, 40, 47, 150 mg/kg
[11] = Colo-205, D19, 26, 33, 40, 47, 300 mg/kg (toxic)
[12] = Colo-205, D19-23, 26-30, 33-37, 40-44, 3.1 mg/kg
[13] = Colo-205, D19-23, 26-30, 33-37, 40-44, 6.3 mg/kg
[14] = Colo-205, D19-23, 26-30, 33-37, 40-44, 12.5 mg/kg
[15] = Colo-205, D19-23, 26-30, 33-37, 40-44, 25 mg/kg
[16] = Colo-205 colon, oral 25 mg/kg once a day for 14 days
[17] = 1 mg BID, melanoma, individual patient
[18] = 1 mg QD, breast, individual patient
[19] = 1 mg QD, melanoma, individual patients
[20] = 2 mg BID, colon, individual patient
[21] = 2 mg BID, lung, individual patient
[22] = 2 mg BID, melanoma, individual patients
[23] = 4 mg BID, melanoma, individual patient
[24] = 15 mg BID, breast, individual patient
[25] = 15 mg BID, melanoma, individual patient
[26] = 20 mg BID continuous, melanoma, individual patients
[27] = 30 mg BID, melanoma, individual patient
[28] = patients, 1 mg BID, C1D21, fasting, mean
[29] = patients, 1 mg QD, C1D21, fasting, mean
[30] = patients, 2 mg BID, C1D21, fasting, mean
[31] = patients, 15 mg BID, C1D21, fasting, mean
[32] = patients, 20 mg BID continuous, C1D21, fasting, mean

## O=C(NOC[C@H](O)CO)c1ccc(F)c(F)c1Nc1ccc(I)cc1F [Compound 1, N-[(R)-2,3-dihydroxy-propoxy]-3,4-difluoro-2-(2-fluoro-4-iodo-phenylamino)-benzamide]
human, in vivo
  doses at which Grade 3 rashes were seen: above 15 mg BID
  effect on serum (C×P) product: no notable effect
patients, dosing 21 days of a 28-day cycle
  MTD: 20 mg BID
[1]; [4]
  CR (complete response): 0/6
  Net Log10 kill: 0.1
  Nonspecific Deaths: 0/6
  PR (partial response): 0/6
  T − C: 29.5 days
  Tumor Free: 0/6
[1]; [5]
  CR (complete response): 0/6
  Net Log10 kill: 0.6
  Nonspecific Deaths: 0/6
  PR (partial response): 0/6
  T − C: 37.7 days
  Tumor Free: 0/6
[1]; [6]
  CR (complete response): 1/6
  Net Log10 kill: 0.8
  Nonspecific Deaths: 0/6
  PR (partial response): 2/6
  T − C: 41.5 days
  Tumor Free: 0/6
[1]; [7]
  CR (complete response): 2/5
  Net Log10 kill: 0.7
  Nonspecific Deaths: 1/6^h
  PR (partial response): 3/5
  T − C: 39.9 days
  Tumor Free: 0/5
[1]; [8]
  CR (complete response): 0/6
  Net Log10 kill: −0.8
  Nonspecific Deaths: 0/6
  PR (partial response): 0/6
  T − C: 13.1 days
  Tumor Free: 0/6
[1]; [9]
  CR (complete response): 0/6
  Net Log10 kill: −0.6
  Nonspecific Deaths: 0/6
  PR (partial response): 0/6
  T − C: 17.0 days
  Tumor Free: 0/6
[1]; [10]
  CR (complete response): 1/6
  Net Log10 kill: 0.4
  Nonspecific Deaths: 0/6
  PR (partial response): 1/6
  T − C: 35.4 days
  Tumor Free: 0/6
[1]; Colo-205, D19, 26, 33, 40, 47, 300 mg/kg
  Net Log10 kill: Toxic
[1]; [11]
  CR (complete response): 2/3
  Nonspecific Deaths: 3/6^i Toxic
  PR (partial response): 1/3 Toxic
  T − C: 60.3 Toxic days
  Tumor Free: 1/3 Toxic
[1]; [12]
  CR (complete response): 0/6
  Net Log10 kill: 0.7
  Nonspecific Deaths: 0/6
  PR (partial response): 2/6
  T − C: 37.8 days
  Tumor Free: 0/6
[1]; [13]
  CR (complete response): 1/6
  Net Log10 kill: 1.1
  Nonspecific Deaths: 0/6
  PR (partial response): 4/6
  T − C: 45.1 days
  Tumor Free: 0/6
[1]; [14]
  CR (complete response): 1/6
  Net Log10 kill: 1.1
  Nonspecific Deaths: 0/6
  PR (partial response): 4/6
  T − C: 45.9 days
  Tumor Free: 0/6
[1]; [15]
  CR (complete response): 6/6
  Net Log10 kill: 1.8
  Nonspecific Deaths: 0/6
  PR (partial response): 0/6
  T − C: 59.3 days
  Tumor Free: 2/6
[1]; Colo-205, D19-46, 3.1 mg/kg
  CR (complete response): 0/6
  Net Log10 kill: 1.0
  Nonspecific Deaths: 0/6
  PR (partial response): 5/6
  T − C: 45.5 days
  Tumor Free: 0/6
[1]; Colo-205, D19-46, 6.3 mg/kg
  CR (complete response): 2/6
  Net Log10 kill: 1.1
  Nonspecific Deaths: 0/6
  PR (partial response): 4/6
  T − C: 46.7 days
  Tumor Free: 0/6
[1]; Colo-205, D19-46, 12.5 mg/kg
  CR (complete response): 6/6
  Net Log10 kill: 2.3
  Nonspecific Deaths: 0/6
  PR (partial response): 0/6
  T − C: 70.1 days
  Tumor Free: 0/6
[1]; Colo-205, D19-46, 25 mg/kg
  CR (complete response): 5/6
  Net Log10 kill: 2.0
  Nonspecific Deaths: 0/6
  PR (partial response): 1/6
  T − C: 63.9 days
  Tumor Free: 1/6
[1]; [16]
  CR (complete responder): 4/10
  PR (partial responder): 5/10
  T − C: 10.8 days
  Tumor Free: 3/10
[2]; [17]
  Compound 1 AUC(0-24), Day 21: 275 ng·h/mL
  Compound 1 Css, avg: 11 ng/mL
[2]; [18]
  Compound 1 AUC(0-24), Day 21: 130 ng·h/mL
  Compound 1 Css, avg: 5.4 ng/mL
[2]; [19]
  Compound 1 AUC(0-24), Day 21: 170 ng·h/mL and 112 ng·h/mL
  Compound 1 Css, avg: 7.1 ng/mL and 4.7 ng/mL
[2]; [20]
  Compound 1 AUC(0-24), Day 21: 898 ng·h/mL
  Compound 1 Css, avg: 37 ng/mL
[2]; [21]
  Compound 1 AUC(0-24), Day 21: 943 ng·h/mL
  Compound 1 Css, avg: 39 ng/mL
[2]; [22]
  Compound 1 AUC(0-24), Day 21: 785 ng·h/mL and 2020 ng·h/mL
  Compound 1 Css, avg: 33 ng/mL and 84 ng/mL
[2]; 4 mg BID, lung, individual patient
  Compound 1 AUC(0-24), Day 21: 1974 ng·h/mL
[2]; [23]
  Compound 1 AUC(0-24), Day 21: 1426 ng·h/mL
  Compound 1 Css, avg: 59 ng/mL
[2]; [24]
  Compound 1 AUC(0-24), Day 21: 7680 ng·h/mL
  Compound 1 Css, avg: 320.0 ng/mL
[2]; [25]
  Compound 1 AUC(0-24), Day 21: 2480 ng·h/mL
  Compound 1 Css, avg: 103.3 ng/mL
[2]; [26]
  Compound 1 AUC(0-24), Day 21: 5480 ng·h/mL and 5800 ng·h/mL
  Compound 1 Css, avg: 228.3 ng/mL and 241.7 ng/mL
[2]; 20 mg BID, melanoma, individual patient
  Compound 1 AUC(0-24), Day 21: 10560 ng·h/mL
[2]; 30 mg BID, colon, individual patient
  Compound 1 AUC(0-24), Day 21: 12000 ng·h/mL
[2]; [27]
  Compound 1 AUC(0-24), Day 21: 12920 ng·h/mL
  Compound 1 Css, avg: 538.3 ng/mL
[2]; fasted state, inter-subject variability
  overall coefficient of variation (CV) for AUC(0-24): 39%
[2]; patients
  elimination plasma half-life: 5 to 16 h
[2]; [28]
  AUC(0-24): 338 ng·h/mL
  Ctrough: 9.17 ng/mL
[2]; [29]
  AUC(0-24): 143 ng·h/mL
  Cmax: 22.3 ng/mL
  Ctrough: 3.00 ng/mL
  Tmax: 2 h
[2]; [30]
  AUC(0-24): 1161 ng·h/mL
  Ctrough: 27.4 ng/mL
[2]; patients, 4 mg BID, C1D21, fasting, mean
  Ctrough: 28.0 ng/mL
[2]; [31]
  AUC(0-24): 5687 ng·h/mL
  Ctrough: 142 ng/mL
[2]; [32]
  AUC(0-24): 6572 ng·h/mL
  Cmax: 989 ng/mL
  Ctrough: 83.7 ng/mL
  T1/2: 5.1 h
  Tmax: 2 h
[2]; patients, 20 mg BID, C1D21, fasting, mean
  Ctrough: 112 ng/mL
[2]; patients, 30 mg BID, C1D21, fasting, mean
  Ctrough: 157 ng/mL
[3]
  half-life: 5 to 14 h
[3]; 1 mg
  Cmax: 41.1 ng/mL
  Tmax: 1 h
  half-life: 13.9 h
[3]; 2 mg
  Cmax: 152 ng/mL
  Tmax: 1 h
[3]; 4 mg
  AUC(0-t): 1580 ng·h/mL
  Cmax: 208 ng/mL
  Tmax: 1 h
  concentration at 21 day: 82 ng/mL
  half-life: 7.6 h
[3]; 15 mg
  Cmax: 706 ng/mL
  Tmax: 1 h
  half-life: 12.6 h
[3]; 20 mg
  AUC(0-t): 6990 ng·h/mL
  Cmax: 766 ng/mL
  Tmax: 2 h
  concentration at 21 day: 440 ng/mL
  half-life: 8.3 h
[3]; 30 mg
  AUC(0-t): 12500 ng·h/mL
  Cmax: 1640 ng/mL
  Tmax: 2 h
  concentration at 21 day: 500 ng/mL
  half-life: 4.8 h
